Data published in US12453709B2, “Compositions and methods for treating autism” (priority 2013, dated 2025).

Legend:
Assay type in all cases: in vivo, human
[1] = test system: male patients diagnosed with autism; assay: Study HT 02-121: Autism Diagnostic Observation Schedule (ADOS-2); conditions: for ADOS-2 Restricted and Repetitive Behavior Mean Change from Screening / ADOS-2 Restricted and Repetitive Behavior Treatment effect versus placebo / ADOS-2 Restricted and Repetitive Behavior change, median / ADOS-2 Social Affect Mean Change from Screening / ADOS-2 Social Affect Treatment effect versus placebo / ADOS-2 Social Affect change, median / ADOS-2 Total Score Mean Change from Screening / ADOS-2 Total Score Treatment effect versus placebo / ADOS-2 Total Score change from Screening, median: Week 4/LOCF
Protocol: (§1) This clinical study was a randomized double-blind, placebo-controlled two-cohort, 4-week dose-escalation study that incorporated two open-label treatment groups to assess the safety and efficacy of L1-79 100 mg and 200 mg TID in male patients between the ages of […] years of age diagnosed with autism. The first cohort of 20 patients was comprised of three groups of patients: The first group of five patients received open-label L1-79 100 mg TID and underwent PK and EKG assessments. The remaining two groups in this cohort consisted of 15 patients randomized on a 2:1 basis to receive L1-79 100 mg TID or placebo. The PK and safety data from the open-label L1-79 100 mg TID group was submitted to FDA for review and acceptance before the second cohort was enrolled. The second cohort was procedurally identical to the first. The second cohort of 20 patients was comprised of the same three groups of patients but a dose of 200 mg TID was used instead of 100 mg TID. The key inclusion criteria were as follows: (1) males between 13 and 21 years of age, (2) DSM-5 compliant diagnosis of autism spectrum disorder, confirmed by the Autistic Diagnosis Interview Review (ADIR), and by an ADOS-2 score consistent with a diagnosis of autism, (3) must have been stable on no more than one concomitant medication and no planned changes in psychosocial interventions during the study.
(§2) The primary efficacy endpoint was the determination of the clinical improvement by the investigator as documented by the Clinical Global Impression (CGI) rating scales. Additional efficacy endpoints included: (1) changes from baseline in the Socialization and Communication Domains of the Vineland Adaptive Behavior Scales, Second Edition (VABS II) parent/caregiver rating form, (2) changes from baseline in the ADOS-2 Total Score and subscores, (3) changes in the Social Responsiveness Scale, Second Edition (SRS-2) Total Score and subscales, (4) changes in the ABC-C domains, (5) changes in the Repetitive Behavior Scale-Revised (RBS-R) Total Score and subscales. Given the exploratory design of this study only descriptive statistics were planned.
(§3) In the preliminary study, all forms were completed at the study site in the presence of the investigator. In Cohort 1 of the present study, the VABS-II, SRS-2, ABC-C and RBS-R were filled out at home by the patient/patient's families prior to treatment visits and returned at treatment visits in order to expedite the execution of the study.

[2] = test system: patients qualified under the DSM-5 definition of autism; assay: Example 4: adverse events and clinical observation
Protocol: α-methyl-DL tyrosine (AMPT) was administered to 3 patients. This group of patients was qualified under the DSM-5 definition of autism and treated.

[3] = test system: male patients diagnosed with autism; assay: Study HT 02-121: Repetitive Behavior Scale-Revised (RBS-R); conditions: for RBS-R Compulsive Behavior Mean Change from Baseline / RBS-R Compulsive Behavior Treatment effect versus placebo / RBS-R Compulsive Behavior change, median / RBS-R Restricted Behavior Mean Change from Baseline / RBS-R Restricted Behavior Treatment effect versus placebo / RBS-R Restricted Behavior change, median / RBS-R Ritualistic Behavior Mean Change from Baseline / RBS-R Ritualistic Behavior Treatment effect versus placebo / RBS-R Ritualistic Behavior change, median / RBS-R Sameness Behavior Mean Change from Baseline / RBS-R Sameness Behavior Treatment effect versus placebo / RBS-R Sameness Behavior change, median / RBS-R Self Injurious Behavior Mean Change from Baseline / RBS-R Self Injurious Behavior Treatment effect versus placebo / RBS-R Self Injurious Behavior change, median / RBS-R Stereotypic Behavior Mean Change from Baseline / RBS-R Stereotypic Behavior Treatment effect versus placebo / RBS-R Stereotypic Behavior change, median / RBS-R Total Score Mean Change from Baseline / RBS-R Total Score Treatment effect versus placebo / RBS-R Total Score change, median: Week 4/LOCF
Protocol: as §1, §2
In the preliminary study, all forms were completed at the study site in the presence of the investigator. In Cohort 1 of the present study, the VABS-II, SRS-2, ABC-C and RBS-R were filled out at home by the patient/patient's families prior to treatment visits and returned at treatment visits in order to expedite the execution of the study. […]

patients with autism = assay: Example 5: open-label evaluation of L1-79 (ABC-C, ADOS-2)
Protocol: L1-79 was used anecdotally in two patients followed by a more structured evaluation in 8 additional patients with autism. All patients were administered a starting dose of L1-79 of 90 mg TID for a minimum of 3 months. During the evaluation doses as high as 400 mg TID were used. A summary of data available on these 10 patients was provided in the Summary of Clinical Efficacy, Use of L1-79 to treat autism, submitted to IND 128673, sequence number 0005.

[4] = test system: male patients diagnosed with autism; assay: Study HT 02-121: Vineland Adaptive Behavior Scales, Second Edition (VABS II); conditions: Week 4/LOCF
Protocol: as §1, §2, §3

In the case of `CC(N)(Cc1ccc(O)cc1)C(=O)O` (racemic) [L1-79, α-methyl-DL-tyrosine], the “ADOS-2 Restricted and Repetitive Behavior Mean Change from Screening” value ([1]; DB 100 mg TID) is reported as 0.3, the “ADOS-2 Restricted and Repetitive Behavior Treatment effect versus placebo” value ([1]; DB 100 mg TID) is reported as 0.5 and the “ADOS-2 Restricted and Repetitive Behavior change, median” value ([1]; DB 100 mg TID) is reported as −1, 0, 1. For the same compound, the “ADOS-2 Social Affect Mean Change from Screening” value ([1]; DB 100 mg TID) was −0.9, the “ADOS-2 Social Affect Treatment effect versus placebo” value ([1]; DB 100 mg TID) was −1.0 and the “ADOS-2 Social Affect change, median” value ([1]; DB 100 mg TID) was −2, 0, 1. For the same compound, the “ADOS-2 Total Score Mean Change from Screening” value ([1]; DB 100 mg TID) was −0.6, the “ADOS-2 Total Score Treatment effect versus placebo” value ([1]; DB 100 mg TID) was −0.6 and the “ADOS-2 Total Score change from Screening, median” value ([1]; DB 100 mg TID) was −1, 0, 0. The “ADOS-2 Restricted and Repetitive Behavior Mean Change from Screening” value ([1]; DB 200 mg TID) was −1.0, the “ADOS-2 Restricted and Repetitive Behavior Treatment effect versus placebo” value ([1]; DB 200 mg TID) was −0.9 and the “ADOS-2 Restricted and Repetitive Behavior change, median” value ([1]; DB 200 mg TID) was −2, −1, 0. The “ADOS-2 Social Affect Mean Change from Screening” value ([1]; DB 200 mg TID) was 0.0, the “ADOS-2 Social Affect Treatment effect versus placebo” value ([1]; DB 200 mg TID) was −0.1 and the “ADOS-2 Social Affect change, median” value ([1]; DB 200 mg TID) was −1, 1, 1. For the same compound, the “ADOS-2 Total Score Mean Change from Screening” value ([1]; DB 200 mg TID) was −1.0, the “ADOS-2 Total Score Treatment effect versus placebo” value ([1]; DB 200 mg TID) was −1.0 and the “ADOS-2 Total Score change from Screening, median” value ([1]; DB 200 mg TID) was −1, −1, 0. For the same compound, the “improvement from baseline in ADOS-2 scores” value ([1]; less than one month of treatment) was “nearly one point”, the adverse events reported ([2]; Example 4 patients) was “mild tiredness on the first day of dosing in two patients” and the “clinical improvements, onset and durability” value ([2]; Example 4 patients) was “begin quickly and are durable”. The “Adverse Events” value ([2]; patient 01-001, 90 TID) was “None”, the “Adverse Events” value ([2]; patient 01-002, 90 TID) was “None” and the “Adverse Events” value ([2]; patient 01-003, 90 TID) was “None”. The “RBS-R Compulsive Behavior Mean Change from Baseline” value ([3]; DB 100 mg TID) was −1.2, the “RBS-R Compulsive Behavior Treatment effect versus placebo” value ([3]; DB 100 mg TID) was 0.3 and the “RBS-R Compulsive Behavior change, median” value ([3]; DB 100 mg TID) was −2, 0, 1. For the same compound, the “RBS-R Restricted Behavior Mean Change from Baseline” value ([3]; DB 100 mg TID) was 1.3, the “RBS-R Restricted Behavior Treatment effect versus placebo” value ([3]; DB 100 mg TID) was 2.9 and the “RBS-R Restricted Behavior change, median” value ([3]; DB 100 mg TID) was 0, 1, 1. For the same compound, the “RBS-R Ritualistic Behavior Mean Change from Baseline” value ([3]; DB 100 mg TID) was 0.1, the “RBS-R Ritualistic Behavior Treatment effect versus placebo” value ([3]; DB 100 mg TID) was 3.8 and the “RBS-R Ritualistic Behavior change, median” value ([3]; DB 100 mg TID) was −1, 0, 2. For the same compound, the “RBS-R Sameness Behavior Mean Change from Baseline” value ([3]; DB 100 mg TID) was −0.7, the “RBS-R Sameness Behavior Treatment effect versus placebo” value ([3]; DB 100 mg TID) was 2.2 and the “RBS-R Sameness Behavior change, median” value ([3]; DB 100 mg TID) was −1, −1, 0. For the same compound, the “RBS-R Self Injurious Behavior Mean Change from Baseline” value ([3]; DB 100 mg TID) was −2.2, the “RBS-R Self Injurious Behavior Treatment effect versus placebo” value ([3]; DB 100 mg TID) was −0.1 and the “RBS-R Self Injurious Behavior change, median” value ([3]; DB 100 mg TID) was −2, 0, 0. For the same compound, the “RBS-R Stereotypic Behavior Mean Change from Baseline” value ([3]; DB 100 mg TID) was −0.6, the “RBS-R Stereotypic Behavior Treatment effect versus placebo” value ([3]; DB 100 mg TID) was −0.1 and the “RBS-R Stereotypic Behavior change, median” value ([3]; DB 100 mg TID) was 0, 0, 0. For the same compound, the “RBS-R Total Score Mean Change from Baseline” value ([3]; DB 100 mg TID) was −3.2, the “RBS-R Total Score Treatment effect versus placebo” value ([3]; DB 100 mg TID) was 7.8 and the “RBS-R Total Score change, median” value ([3]; DB 100 mg TID) was −6, −4, −1. The “RBS-R Compulsive Behavior Mean Change from Baseline” value ([3]; DB 200 mg TID) was −2.7, the “RBS-R Compulsive Behavior Treatment effect versus placebo” value ([3]; DB 200 mg TID) was −1.2 and the “RBS-R Compulsive Behavior change, median” value ([3]; DB 200 mg TID) was −3, 0, 0. For the same compound, the “RBS-R Restricted Behavior Mean Change from Baseline” value ([3]; DB 200 mg TID) was −2.5, the “RBS-R Restricted Behavior Treatment effect versus placebo” value ([3]; DB 200 mg TID) was −1.0 and the “RBS-R Restricted Behavior change, median” value ([3]; DB 200 mg TID) was −5, −1, 0. The “RBS-R Ritualistic Behavior Mean Change from Baseline” value ([3]; DB 200 mg TID) was −3.1, the “RBS-R Ritualistic Behavior Treatment effect versus placebo” value ([3]; DB 200 mg TID) was 0.6 and the “RBS-R Ritualistic Behavior change, median” value ([3]; DB 200 mg TID) was −5, −1, 0. The “RBS-R Sameness Behavior Mean Change from Baseline” value ([3]; DB 200 mg TID) was 4.2, the “RBS-R Sameness Behavior Treatment effect versus placebo” value ([3]; DB 200 mg TID) was −1.3 and the “RBS-R Sameness Behavior change, median” value ([3]; DB 200 mg TID) was −9, 0, 0. For the same compound, the “RBS-R Self Injurious Behavior Mean Change from Baseline” value ([3]; DB 200 mg TID) was −1.7, the “RBS-R Self Injurious Behavior Treatment effect versus placebo” value ([3]; DB 200 mg TID) was 0.4 and the “RBS-R Self Injurious Behavior change, median” value ([3]; DB 200 mg TID) was −1, 0, 0. For the same compound, the “RBS-R Stereotypic Behavior Mean Change from Baseline” value ([3]; DB 200 mg TID) was −1.8, the “RBS-R Stereotypic Behavior Treatment effect versus placebo” value ([3]; DB 200 mg TID) was −1.4 and the “RBS-R Stereotypic Behavior change, median” value ([3]; DB 200 mg TID) was −5, 0, 0. For the same compound, the “RBS-R Total Score Mean Change from Baseline” value ([3]; DB 200 mg TID) was −16.1, the “RBS-R Total Score Treatment effect versus placebo” value ([3]; DB 200 mg TID) was −5.1 and the “RBS-R Total Score change, median” value ([3]; DB 200 mg TID) was −28, −2, 0. The “RBS-R Total Score compared to placebo” value ([3]; L1-79 200 mg) was “mean improvements”, the “RBS-R Total Score responders (improvement or stabilization of symptoms)” value ([3]; L1-79 200 mg, placebo 78%) was 91% and the “effect of longer treatment on core symptoms” value (patients with autism; open-label) was “greater magnitude of therapeutic benefits”. The ABC-C domains (patients with autism; open-label, 10 patients) was “consistent improvements”, the “average reduction in the ADOS-2” value (patients with autism; open-label, 10 patients, from 90 mg TID, minimum 3 months) was 30% and the “ADOS-2 decrease in one child (loss of autism diagnosis)” value (patients with autism; open-label, one child) was 60%. For the same compound, the benefits after discontinuation (patients with autism; study drug discontinued) was “not all of the benefits regressed”, the “VABS II Standardized Communication Score Mean Change from Baseline” value ([4]; DB 100 mg TID) was 10.1 and the “VABS II Standardized Communication Score Treatment effect versus placebo” value ([4]; DB 100 mg TID) was 3.6. The “VABS II Standardized Communication Score change, median” value ([4]; DB 100 mg TID) was −1, 5, 16, the “VABS II Standardized Socialization Score Mean Change from Baseline” value ([4]; DB 100 mg TID) was −4.2 and the “VABS II Standardized Socialization Score Treatment effect versus placebo” value ([4]; DB 100 mg TID) was −5.0. The “VABS II Standardized Socialization Score change, median” value ([4]; DB 100 mg TID) was −13, −12, 9, the “VABS II Standardized Communication Score Mean Change from Baseline” value ([4]; DB 200 mg TID) was 2.7 and the “VABS II Standardized Communication Score Treatment effect versus placebo” value ([4]; DB 200 mg TID) was −3.8. The “VABS II Standardized Communication Score change, median” value ([4]; DB 200 mg TID) was 0, 1, 3, the “VABS II Standardized Socialization Score Mean Change from Baseline” value ([4]; DB 200 mg TID) was 7.6 and the “VABS II Standardized Socialization Score Treatment effect versus placebo” value ([4]; DB 200 mg TID) was 6.8. For the same compound, the “VABS II Standardized Socialization Score change, median” value ([4]; DB 200 mg TID) was 0, 1, 20.
